By Km is commonly meant the concentration of substrate that gives half-maximal velocity. The pKi is −log10 of the Ki, conventionally taken in molar units.

The values that follow come from patent US6436649B1, “Method for detecting and/or quantifying a hapten in a homogeneous phase and device for implementation thereof” (priority 1996, dated 2002).

pKi: −log10 of the molar value. Like-named read-outs stand apart in the source and are kept apart here.

One test deals with E. Coli β-lactamase (Escherichia coli, UniProt P00811). To be noted: enzyme E. Coli; cited from earlier work.
In a further test the target is P99/Q908R β-lactamases (Enterobacter cloacae, UniProt P05364). To be noted: cited from earlier work.
A further test concerns the target Citro.F. β-lactamase (Citrobacter freundii, UniProt P05193). The following applies: enzyme Citro.F.; cited from earlier work.
Test [1] has as its target T1, β-lactamase from E. Coli (Escherichia coli, UniProt P00811). The test can be described thus: Inhibitory activity in the presence of anti-nandrolone antibodies. It is filed as biochemical. To be noted: for V1: without antibodies. An excerpt:
(§1) The objective of these measurements, by way of example, is the evaluation of the restoration of the predominant part of the enzymatic activity in the presence of a precise quantity of inhibitor.

Another test deals with T2, β-lactamase from P99 (Enterobacter cloacae, UniProt P05364).
T2 construct: host or cells: Enterobacter cloacae P99 (strain of origin as printed)
The description is as above. It is filed as biochemical. To be noted: P99, [S] 60, [E] 0.25, [I] 0.2 μM.
Source text: as §1

The target of test [2] is T1, β-lactamase from E. Coli. The test is described as follows: Inhibitory activity (Ki) on nitrocefin hydrolysis by β-lactamase. It is filed as biochemical. The following applies: for pKi: Ki. An excerpt: (§2) The choice of the inhibitor depends on the kinetic parameters and on the possibilities of coupling with the hapten to be assayed (presence of functional groups which are not essential for the inhibitory activity). At the enzymatic level, the ideal inhibitor should have a kcat which is as low as possible (very slow rate of degradation) while having a Km which is as low as possible (high affinity for the enzyme) . In the case of the inhibition reactions envisaged, the Km value is close to the constant Ki. The Km can therefore be estimated from an evaluation of the Ki. This is obtained from kinetic measurements carried out in the presence of a reporter substrate with known characteristics, and this in the presence of a variable quantity of inhibitor. The ideal inhibitor should also have a rate constant k+1 (corresponding to the step of binding of the inhibitor to the enzyme) which is as high as possible. Based on this principle, it has been possible to select five inhibitors. They are:
(§3) The measurements were carried out on β-lactamases from different bacterial strains: Enterobacter cloacae P99, Escherichia coli and Citrobacter freundii, symbolized by: P99, E. Coli and C. Freundii.
(§4) The measurements are divided into four parts. […] The second is an evaluation of the inhibitory activity of the inhibitors (Table 9). The third groups together the measurements of enzymatic activity in order to determine the quantity of antibody to be used in the assay. The fourth part comprises the assay of the haptens.
(§5) By way of example, the results of a selective study carried out on this compound are provided. The results presented in Table 9 give the values obtained according to a similar method. […] These measurements determine the concentrations of inhibitor (I) to be used during the assay.

Test [3] has as its target β-lactamase from C. Freundii (Citrobacter freundii, UniProt P05193). The description is as above. It is filed as biochemical. The following applies: for pKi: Ki.
Source text: as §2, §3, §4, §5

For test [4], the target named is T3, β-lactamase from Enterobacter cloacae P99 (Enterobacter cloacae, UniProt P05364).
T3 construct: host or cells: Enterobacter cloacae P99 (strain of origin as printed)
The description is as above. To be noted: for pKi: Ki. It is filed as biochemical.
Source text: as §2, §3, §4, §5

The target in the next test is T4, type C β-lactamases (Enterobacter cloacae, UniProt P05364).
T4 construct: Ki
To be noted: Ki of the parent inhibitor; cited from earlier work.

For test [5], the system named is P99/Q908E/E. Coli β-lactamases. The following applies: enzymes P99/Q908E/E. Coli; cited from earlier work.
The mark [6] stands for this setting: E. Coli [E] 1 nM, [S] nitrocefin 150 μM, [I] 0.2 μM.
The mark [7] stands for this setting: E. Coli [E] 1 nM, [S] nitrocefin 150 μM, [I] 0.4 μM.
Setting [8] is: C. Freundii [E] 0.375 nM, [S] nitrocefin 60 μM, [I] 0.1 μM.
The mark [9] stands for this setting: C. Freundii [E] 0.375 nM, [S] nitrocefin 60 μM, [I] 0.2 μM.
[10] abbreviates: P99 [E] 0.0625 nM, [S] nitrocefin 50 μM, [I] 0.1 μM.
The mark [11] stands for this setting: P99 [E] 0.0625 nM, [S] nitrocefin 50 μM, [I] 0.3 μM.
[12] abbreviates: P99 [E] 0.0625 nM, [S] nitrocefin 50 μM, [I] 0.4 μM.
[13] abbreviates: P99 [E] 0.0625 nM, [S] nitrocefin 50 μM, [I] 0.5 μM.
Where [14] appears, read: P99 [E] […], [S] nitrocefin 60 μM, [I] 0.2 μM.
The mark [15] stands for this setting: P99 [E] […], [S] nitrocefin 60 μM, [I] 0.24 μM.

T1 sequence (P00811 20-377): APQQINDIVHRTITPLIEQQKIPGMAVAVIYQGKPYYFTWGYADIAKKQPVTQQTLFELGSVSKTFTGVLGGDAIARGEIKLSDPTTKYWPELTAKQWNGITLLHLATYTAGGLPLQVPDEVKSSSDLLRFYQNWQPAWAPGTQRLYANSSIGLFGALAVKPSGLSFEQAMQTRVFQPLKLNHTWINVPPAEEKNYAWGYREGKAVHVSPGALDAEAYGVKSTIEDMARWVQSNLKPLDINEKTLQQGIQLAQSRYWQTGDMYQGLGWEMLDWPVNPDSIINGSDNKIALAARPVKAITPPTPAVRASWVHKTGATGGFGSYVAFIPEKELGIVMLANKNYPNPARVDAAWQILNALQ
E. Coli β-lactamase, sequence (P00811 20-377): as above
Citro.F. β-lactamase, sequence (P05193 21-381): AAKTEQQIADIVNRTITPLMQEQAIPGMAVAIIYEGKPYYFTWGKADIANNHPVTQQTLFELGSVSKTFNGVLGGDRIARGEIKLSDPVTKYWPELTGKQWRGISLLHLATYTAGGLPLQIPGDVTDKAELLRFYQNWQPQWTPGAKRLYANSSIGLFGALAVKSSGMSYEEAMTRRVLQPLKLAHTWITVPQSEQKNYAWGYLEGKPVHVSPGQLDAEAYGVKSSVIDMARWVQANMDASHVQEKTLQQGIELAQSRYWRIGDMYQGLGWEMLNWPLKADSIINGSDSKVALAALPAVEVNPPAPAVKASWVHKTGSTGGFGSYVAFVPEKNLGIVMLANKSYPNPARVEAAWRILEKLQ
β-lactamase from C. Freundii, sequence (P05193 21-381): as above

For `CC(=O)OCC1=C(C(=O)O)N2C(=O)[C@@H](NC(=O)Cc3cccs3)[C@H]2SC1` [Cephalothin], on E. Coli β-lactamase, the Km was 42 µM and the kcat is 300 S^−1. In addition, on P99/Q908R β-lactamases (enzyme P99/Q908R), the Km is 15 µM and the kcat is given as 200 S^−1.

Consider `COc1cccc(OC)c1C(=O)N[C@@H]1C(=O)N2[C@@H]1SC(C)(C)[C@@H]2C(=O)O` [Methicillin], for which the figures for the Km on E. Coli β-lactamase, at Citro.F. β-lactamase and on P99/Q908R β-lactamases (enzyme P99/Q908R) were 0.15 µM, 0.002 µM and 0.03 µM, respectively. Further, the kcat is reported as 0.08 S^−1 on E. Coli β-lactamase, 0.01 S^−1 at Citro.F. β-lactamase and 0.007 S^−1 on P99/Q908R β-lactamases (enzyme P99/Q908R).

`CC(=O)OCC1=C(C(=O)O)N2C(=O)[C@@H](NC(=O)CCC[C@@H](N)C(=O)O)[C@H]2SC1` [Cephalosporin C]: the kcat on P99/Q908R β-lactamases (enzyme P99/Q908R) is recorded as 1100 S^−1. Moreover, the Km on P99/Q908R β-lactamases (enzyme P99/Q908R, read-out: Km) is 400 µM.

Regarding `Cc1nnc(SCC2=C(C(=O)O)N3C(=O)[C@@H](NC(=O)Cn4cnnn4)[C@H]3SC2)s1` [Cefazolin], at E. Coli β-lactamase, the Km is 400 µM and the kcat was 3000 150 S^−1.

Take `CC1(C)S[C@@H]2[C@H](NC(=O)C(C(=O)O[C@H]3CC[C@H]4[C@@H]5CCC6=CC(=O)CC[C@@H]6[C@H]5CC[C@]34C)c3ccccc3)C(=O)N2[C@H]1C(=O)O` (stereo partly drawn) [Conjugate 1, nandrolone carbenicillinate]: the Vab on β-lactamase from E. Coli [1] ([S] 150, [E] 1, [I] 0.24 μM, anti-nandrolone serum dil. 625 x) amounted to 307 nM/s; at β-lactamase from E. Coli [1] ([S] 150, [E] 1, [I] 0.24 μM, anti-nandrolone serum dil. 714 x), 299 nM/s; at β-lactamase from E. Coli [1] ([S] 150, [E] 1, [I] 1 μM, anti-nandrolone serum dil. 100 x) it was 211 nM/s; on β-lactamase from E. Coli [1] ([S] 150, [E] 1, [I] 1 μM, anti-nandrolone serum dil. 125 x) it was 210 nM/s; at β-lactamase from E. Coli [1] ([S] 150, [E] 1, [I] 1 μM, anti-nandrolone serum dil. 140 x) it was 200 nM/s; on β-lactamase from E. Coli [1] ([S] 150, [E] 1, [I] 1 μM, anti-nandrolone serum dil. 200 x), 174 nM/s. Moreover, the Vab on β-lactamase from E. Coli [1] ([S] 150, [E] 1, [I] 1 μM, anti-nandrolone serum dil. 500 x) came to 123 nM/s; on β-lactamase from P99 (anti-nandrolone serum dil. 500 x), 200 nM/s; at β-lactamase from P99 (anti-nandrolone serum dil. 625 x), 200 nM/s; at β-lactamase from P99 (anti-nandrolone serum dil. 770 x), 189 nM/s; at β-lactamase from P99 (anti-nandrolone serum dil. 1000 x) it was 170 nM/s. Further, the V1 at β-lactamase from E. Coli [1] ([S] 150, [E] 1, [I] 0.24 μM) amounted to 210 nM/S; at β-lactamase from E. Coli [1] ([S] 150, [E] 1, [I] 1 μM), 90 nM/S; at β-lactamase from P99 (without antibodies) it was 131 nM/S; on β-lactamase from E. Coli [2] (setting [6]), 260 nM/s; at β-lactamase from E. Coli [2] (setting [7]), 220 nM/s; in test [3] (setting [8]), 209 nM/s. The V1 in test [3] (setting [9]) is given as 163 nM/s; in test [4] (setting [10]), 36 nM/s; in [4] (setting [11]), 20 nM/s; in test [4] (setting [12]) it was 17 nM/s; in test [4] (setting [13]) it was 16 nM/s; in test [4] (setting [14]), 131 nM/s. Also, the V1 in test [4] (setting [15]) came to 116 nM/s. The “V0/V1 1” value on β-lactamase from E. Coli [2] (setting [6]) came out at 0.19; on β-lactamase from E. Coli [2] (setting [7]), 0.41; in test [3] (setting [8]) it was 0.15; in test [3] (setting [9]), 0.47; in test [4] (setting [10]), 0.44; in [4] (setting [11]), 1.6. Moreover, the “V0/V1 1” value came out at 2.06 in test [4] (setting [12]), 2.25 in [4] (setting [13]), 0.66 in test [4] (setting [14]) and 0.88 in test [4] (setting [15]). Besides, the pKi on β-lactamase from E. Coli [2] (setting [6]) was 6.10; at β-lactamase from E. Coli [2] (setting [7]) it was 6.12; on β-lactamase from E. Coli [2] (E. Coli, summary value of the two determinations) it was 6.11; in test [3] (setting [8]), 7.10; in test [3] (setting [9]), 7.21; in test [3] (C. Freundii, summary value of the two determinations), 7.15. Also, the pKi in test [4] (P99, summary value of the six determinations) was 7.13; in [4] (setting [10]) it was 7.12; in [4] (setting [11]), 7.21; in [4] (setting [12]) it was 7.19; in [4] (setting [13]) it was 7.13; in test [4] (setting [14]), 7.06. Also, the pKi in test [4] (setting [15]) is 7.11; in [4] (enzyme from P99), 7.15.

Consider `CO/N=C(\C(=O)N[C@@H]1C(=O)N2C(C(=O)O)=C(COC(C)=O)CS[C@H]12)c1csc(N)n1` [Cefotaxime], for which, at E. Coli β-lactamase, the Km was 1.7 µM and the kcat was 0.17 S^−1. In addition, on P99/Q908R β-lactamases (enzyme P99/Q908R), the Km is 0.01 µM and the kcat is recorded as 0.01 S^−1.

Turning to `CC1(C)S[C@@H]2[C@H](NC(=O)C(C(=O)O)c3ccccc3)C(=O)N2[C@H]1C(=O)O` (stereo partly drawn) [Carbenicillin], the Km at E. Coli β-lactamase is 0.02 µM; on Citro.F. β-lactamase, 0.0005 µM; on P99/Q908R β-lactamases (enzyme P99/Q908R), 0.01 µM. The kcat is reported as 0.003 S^−1 at E. Coli β-lactamase, 0.004 S^−1 on Citro.F. β-lactamase and 0.002 S^−1 on P99/Q908R β-lactamases (enzyme P99/Q908R). Also, the pKi on type C β-lactamases is 8.00.

With `CC1=C(C(=O)O)N2C(=O)[C@@H](NC(=O)[C@H](N)c3ccccc3)[C@H]2SC1` [Cephalexin], the Km on E. Coli β-lactamase is 4 µM; at P99/Q908R β-lactamases (enzyme P99/Q908R, read-out: Km), 10 µM. For the same compound, the kcat on E. Coli β-lactamase is listed as 38 S^−1; on P99/Q908R β-lactamases (enzyme P99/Q908R), 100 S^−1.

In the case of `CC1(C)S[C@@H]2[C@H](NC(=O)[C@H](C(=O)O)c3ccsc3)C(=O)N2[C@H]1C(=O)O` [Ticarcillin], in test [5], the Km was 250 nM and the kcat is recorded as 0.045 S^−1.

Consider `CC(=O)OCC1=C(C(=O)O)N2C(=O)[C@@H](NC(=O)CC#N)[C@H]2SC1` [Cephaestrile], for which, at P99/Q908R β-lactamases (enzyme P99/Q908R), the Km was 140 µM and the kcat is listed as 143 S^−1.

Take `O=C(Cc1cccs1)N[C@@H]1C(=O)N2C(C(=O)[O-])=C(C[n+]3ccccc3)CS[C@H]12` [Cephaloridine]: the Km at E. Coli β-lactamase is 170 µM; at Citro.F. β-lactamase it was 35 µM; on P99/Q908R β-lactamases (enzyme P99/Q908R) it was 70 µM. The kcat was 130 S^−1 at E. Coli β-lactamase, 700 S^−1 at Citro.F. β-lactamase and 650 S^−1 on P99/Q908R β-lactamases (enzyme P99/Q908R).

For `O=C(Cc1cccs1)N[C@@H]1C(=O)N2C(C(=O)O)=C(/C=C/c3ccc([N+](=O)[O-])cc3[N+](=O)[O-])CS[C@H]12` [Nitrocephin], the Km on E. Coli β-lactamase is 500 µM; at Citro.F. β-lactamase it was 12 µM; on P99/Q908R β-lactamases (enzyme P99/Q908R, read-out: Km), 25 µM. The kcat is 500 S^−1 at E. Coli β-lactamase; 300 S^−1 at Citro.F. β-lactamase; 780 s⁻¹ on P99/Q908R β-lactamases (P99 enzyme, nitrocefin as reporter substrate); 780 S^−1 on P99/Q908R β-lactamases (enzyme P99/Q908R).

In the case of `CC(=O)OCC1=C(C(=O)O)N2C(=O)[C@@H](NC(=O)[C@H](N)c3ccccc3)[C@H]2SC1` [Cephaglycine], the kcat at P99/Q908R β-lactamases (enzyme P99/Q908R) is reported as 1 S^−1. Besides, on P99/Q908R β-lactamases (enzyme P99/Q908R, read-out: Km), the Km is 2 µM.
